Data: patent US20220009920A1 (GB005, Inc., priority 2020, published 2022)
Like-named read-outs stand apart in the source and are kept apart here.

Assays:
[1] = Plasma and total brain concentrations at 1 h post single oral administration to female C57BL/6 mice; assay type: in vivo; conditions: mouse, 10 mg/kg oral gavage; for Kp at 1 h: brain/plasma, read-out: brain to plasma ratio
Protocol: The appropriate amount of test article was dissolved 10% dimethylacetamide (DMA)/90% (20% hydroxypropyl-β-cyclodextrin (HP-B-CD) w/v in water to obtain a final concentration of 1 mg/mL for oral dosing. Sonication, vortex, and homogenization was used as needed. Three female C57BL/6 mice aged 7-9 weeks (20-30 grams) were dosed by oral gavage 10 mg/kg solution of the test article.
Concentrations of test compounds in the plasma and brain samples (use plasma and brain homogenate standard curve for all samples appropriately) were analyzed using LC-MS/MS. Compounds having a brain-to-plasma ratio of greater than 0.2 were considered brain penetrant.

BTK in RAMOS B cells = assay: Assay to determine BTK activity in RAMOS B cells (anti-IgM, FLIPR Calcium 6); assay type: cell-based; conditions: Homo sapiens, Ramos, anti-IgM EC80, calcium readout
BTK = biological target: T1, BTK (Homo sapiens, UniProt Q06187); assay: Assay to determine activity against BTK; assay type: biochemical; conditions: 1 mM ATP, 2 nM BTK, 90 minutes at room temperature
T1 construct: purchased Cama
Procedure, shortened: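 Recombinant BTK (2 nM) was assayed with 1.5 µM FL-peptide and 1 mM ATP in pH 7.5 HEPES buffer with MgCl2, DTT, BSA and EGTA, for 90 min at room temperature before an EDTA stop. Peptide conversion ratio was read by mobility-shift, and IC50 came from 11-point 3-fold dilution curves.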

[2] = plasma, read-out: Mean [plasma]

T1 sequence (Q06187 whole entry): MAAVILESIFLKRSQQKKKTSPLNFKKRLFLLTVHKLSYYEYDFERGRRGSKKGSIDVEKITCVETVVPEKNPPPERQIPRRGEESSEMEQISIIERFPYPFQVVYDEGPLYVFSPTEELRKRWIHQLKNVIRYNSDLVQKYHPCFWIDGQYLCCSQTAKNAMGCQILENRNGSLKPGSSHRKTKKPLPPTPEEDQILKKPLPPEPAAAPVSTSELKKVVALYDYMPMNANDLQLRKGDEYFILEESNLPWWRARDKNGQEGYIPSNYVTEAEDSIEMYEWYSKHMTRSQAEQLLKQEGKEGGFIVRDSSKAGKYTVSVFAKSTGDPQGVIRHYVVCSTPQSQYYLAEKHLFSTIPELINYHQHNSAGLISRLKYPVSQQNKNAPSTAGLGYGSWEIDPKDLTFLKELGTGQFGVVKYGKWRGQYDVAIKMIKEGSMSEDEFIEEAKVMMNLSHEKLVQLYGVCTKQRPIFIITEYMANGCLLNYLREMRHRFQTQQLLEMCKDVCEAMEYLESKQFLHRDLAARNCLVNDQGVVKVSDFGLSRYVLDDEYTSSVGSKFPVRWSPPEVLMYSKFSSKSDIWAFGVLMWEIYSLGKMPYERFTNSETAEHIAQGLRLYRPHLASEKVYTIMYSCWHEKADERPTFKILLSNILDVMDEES

SMILES | concentration at 1 h ([1]; brain, read-out: Mean [brain]) | Kp at 1 h [1] | concentration at 1 h [1, 2] | IC50 (BTK in RAMOS B cells) | IC50 (BTK)
CC#CC(=O)N1CCC[C@H]1c1nc(-c2ccc(C(=O)Nc3ccccn3)cc2)c2c(N)nccn12 [Acalabrutinib, reference compound] | 4 ng/g | 0.04 | 0.12 µg/mL |  | 
C=CC(=O)N1CCC(CNc2ncnc(N)c2-c2ccc(Oc3ccccc3)cc2)CC1 [Evobrutinib, reference compound] | 11 ng/g | 0.06 | 0.177 µg/mL |  | 
C=CC(=O)N1CCC[C@@H](n2nc(-c3ccc(Oc4ccccc4)cc3)c3c(N)ncnc32)C1 [Ibrutinib, reference compound] | 15 ng/g | 0.001 | 0.306 µg/mL |  | 

Next, values leading:

concentration at 1 h ([1]; brain, read-out: Mean [brain]) | Kp at 1 h [1] | concentration at 1 h [1, 2] | IC50 (BTK in RAMOS B cells) | IC50 (BTK) | SMILES
15 ng/g | 0.002 | 6.82 µg/mL |  |  | CC#CC(=O)N[C@H]1CCCN(c2c(F)cc(C(N)=O)c3[nH]c(C)c(C)c23)C1 [Branebrutinib, reference compound]
39 ng/g | 0.24 | 0.163 µg/mL | < 0.01 µM | < 0.01 µM | C=CC(=O)N1CCC[C@@H](c2cnc(C(N)=O)c3[nH]c4c(c23)CCCC4)C1 [Compound 2-4, (S)-4-(1-acryloylpiperidin-3-yl)-6,7,8,9-tetrahydro-5H-pyrido[3,4-b]indole-1-carboxamide]
4 ng/g | 0.22 | 0.018 µg/mL | 0.01 to 0.1 µM | < 0.01 µM | C=CC(=O)N1CCC=C(c2c(F)cc(C(N)=O)c3[nH]c4c(c23)CCCCC4)C1 [Compound 5-4, 1-(1-acryloyl-1,2,5,6-tetrahydropyridin-3-yl)-2-fluoro-5,6,7,8,9,10-hexahydrocyclohepta[b]indole-4-carboxamide]
43 ng/g | 0.39 | 0.109 µg/mL | ≥ 0.1 µM | 0.01 to 0.1 µM | C=CC(=O)N1CCc2c(cccc2-c2ccc(C(N)=O)c3[nH]c4c(c23)CC2(CC4)CC2)C1 [Compound 7-2, 5-(2-acryloyl-1,2,3,4-tetrahydroisoquinolin-5-yl)-1,2,4,9-tetrahydrospiro[carbazole-3,1′-cyclopropane]-8-carboxamide]
